# Results as given in patent publication US20240409556A1, “BENZOPIPERAZINE AND RELATED ANALOGS FOR INHIBITING YAP/TAZ-TEAD” (Springworks Therapeutics, Inc., priority 2023, published 2024).
# Test system: YAP/TAZ-TEAD transcription
# Experiment: Reporter gene assay for measuring the inhibition of YAP/TAZ-TEAD transcription (TEAD-responsive element luciferase reporter in Hek293T cells)
# Type: cell-based
# Conditions: 24 hours incubation
# Procedure: Example 56: Activity of Compounds of the Disclosure in a Reporter Gene Assay for Measuring the Inhibition of YAP/TAZ-TEAD Transcription
# Hek293T cells were cultured in DMEM supplemented with 10% fetal bovine serum, Sodium pyruvate, Sodium bicarbonate, L-glutamine. The cells were harvested and transiently transfected with TEAD-responsive element luciferase reporter. Transfected cells were plated in 384-well plate containing pre-diluted compounds. After 24 hours incubation at 37° C./5% CO2, assay plates were cooled to room temperature and levelled to an equal volume per well, prior to the addition of 25 uL luciferase substrate SteadyLite (Perkin Elmer)/well. The plate was shaken for 10 min at 600 rpm, centrifuged for 1 min at 500 rpm and measured with an Envision reader (PerkinElmer). The amount of relative light units produced by the TEAD reporter was used to calculate the percentage of inhibition.
# The percent of reporter inhibition was calculated in the presence of a positive control inhibitor (100% inhibition) versus a condition with the presence of the vehicle basal activity of the reporter (0% inhibition). The ability of a test compound to inhibit this activity was determined as: Percentage inhibition=[[…]((RLU determined in the presence of vehicle−RLU determined for sample with test compound present) divided by (RLU determined in the presence of vehicle−RLU determined for sample with positive control inhibitor))]*100.
# The activities of example compounds tested are depicted in Table 3. The activity ranges A, B and C refer to IC50 values in the reporter gene assay as follows: “A”: IC50<1 μM; “B”: 1 μM≤IC50≤10 μM and “C”: IC50>10 μM; NT=not tested.
row,IC50,SMILES
1,> 10 µM,"CC(=O)N1CC2CN(c3ccc(C(F)(F)F)cc3)c3ccccc3N2CC1C(=O)O (stereo not drawn) [compound 90, (cis)- or (trans)-3-acetyl-6-(4-(trifluoromethyl)phenyl)-2,3,4,4a,5,6-hexahydro-1H-pyrazino[1,2-a]quinoxaline-2-carboxylic acid]"
2,< 1 µM,"CC(=O)N1CCN2c3ncccc3N(c3ccc(C(F)(F)F)cn3)CC2C1 (stereo not drawn) [compound 53, 1-(5-(5-(trifluoromethyl)pyridin-2-yl)-5,6,6a,7,9,10-hexahydro-8H-pyrazino[1,2-a]pyrido[3,2-e]pyrazin-8-yl)ethan-1-one]"
3,> 10 µM,"COc1ccc2c(n1)OC(CNC(C)=O)CN2c1ccc(C(F)(F)F)cc1 (single isomer, unassigned) [73-En1, (R)- or (S)-N-((6-methoxy-1-(4-(trifluoromethyl)phenyl)-2,3-dihydro-1H-pyrido[2,3-b][1,4]oxazin-3-yl)methyl)acetamide]"
4,< 1 µM,"FC(F)(F)c1ccc(N2CC3CC(c4nnn[nH]4)CCN3c3ccccc32)cc1 (single isomer, unassigned) [121-D4, 8-(1H-tetrazol-5-yl)-5-(4-(trifluoromethyl)phenyl)-6,6a,7,8,9,10-hexahydro-5H-pyrido[1,2-a]quinoxaline]"
5,> 10 µM,"CC(=O)N1CC(=O)N2c3ccccc3N(c3ccc(C(F)(F)F)cc3)CC2C1 (single isomer, unassigned) [79-En1, (R)- or (S)-3-acetyl-6-(4-(trifluoromethyl)phenyl)-2,3,4,4a,5,6-hexahydro-1H-pyrazino[1,2-a]quinoxalin-1-one]"
6,1 to 10 µM,"FC(F)(F)c1ccc(N2CC3CC(c4nnn[nH]4)CCN3c3ccccc32)cc1 (single isomer, unassigned) [121-D3, 8-(1H-tetrazol-5-yl)-5-(4-(trifluoromethyl)phenyl)-6,6a,7,8,9,10-hexahydro-5H-pyrido[1,2-a]quinoxaline]"

row,SMILES,IC50
1,"C=CC(=O)N1CCN2C(C1)CN(c1ccc(C(F)(F)F)cc1)C1CCC12 (single isomer, unassigned) [42(Dia2), 1-(3-(4-(trifluoromethyl)phenyl)decahydro-6H-cyclobuta[e]pyrazino[1,2-a]pyrazin-6-yl)prop-2-en-1-one]",< 1 µM

# Same assay, conditions: Homo sapiens, HEK-293T, 24 h, 24 hours incubation
row,IC50,SMILES
1,> 10 µM,"Cc1nnc(N2CCN3c4ccccc4N(c4ccc(C(F)(F)F)cc4)CC3C2)o1 (stereo not drawn) [compound 24, 2-methyl-5-(6-(4-(trifluoromethyl)phenyl)-1,2,4,4a,5,6-hexahydro-3H-pyrazino[1,2-a]quinoxalin-3-yl)-1,3,4-oxadiazole]"
2,< 1 µM,"C=CC(=O)NCC1CN(c2ccc(C(F)(F)F)cc2)c2ccccc2N1CC(=O)NC (stereo not drawn) [compound 12, N-((1-(2-(methylamino)-2-oxoethyl)-4-(4-(trifluoromethyl)phenyl)-1,2,3,4-tetrahydroquinoxalin-2-yl)methyl)acrylamide]"
3,< 1 µM,"CS(=O)(=O)N1CCN2c3ccccc3N(c3ccc(C(F)(F)F)cc3)CC2C1 (stereo not drawn) [compound 16, 3-(methylsulfonyl)-6-(4-(trifluoromethyl)phenyl)-2,3,4,4a,5,6-hexahydro-1H-pyrazino[1,2-a]quinoxaline]"
4,1 to 10 µM,"O=C(O)[C@H]1C[C@@H]2CN(c3ccc(C(F)(F)F)cc3)c3cccnc3N2C1 [compound 113, (6aR,8S)-5-(4-(trifluoromethyl)phenyl)-5,6,6a,7,8,9-hexahydropyrido[3,2-e]pyrrolo[1,2-a]pyrazine-8-carboxylic acid]"
5,> 10 µM,"N#C[C@@H]1C[C@@H]2CN(c3ccc(C(F)(F)F)cc3)c3cccnc3N2C1 [compound 103, (6aR,8R)-5-(4-(trifluoromethyl)phenyl)-5,6,6a,7,8,9-hexahydropyrido[3,2-e]pyrrolo[1,2-a]pyrazine-8-carbonitrile]"
6,> 10 µM,"CC(=O)NCC1CN(c2ccc(C(F)(F)F)cc2)c2ccccc2N1CCC(=O)O (stereo not drawn) [compound 8, 3-(2-(acetamidomethyl)-4-(4-(trifluoromethyl)phenyl)-3,4-dihydroquinoxalin-1(2H)-yl)propanoic acid]"
7,< 1 µM,"CC(=O)NC[C@H]1CN(c2ccc(C(F)(F)F)cc2)c2cccnc2N1 [39-En1, (S)-N-((1-(4-(trifluoromethyl)phenyl)-1,2,3,4-tetrahydropyrido[2,3-b]pyrazin-3-yl)methyl)acetamide]"
8,1 to 10 µM,"O=C(O)CC(=O)N[C@@H]1C[C@@H]2CN(c3ccc(C(F)(F)F)cc3)c3cccnc3N2C1 [compound 94, 3-oxo-3-(((6aR,8R)-5-(4-(trifluoromethyl)phenyl)-5,6,6a,7,8,9-hexahydropyrido[3,2-e]pyrrolo[1,2-a]pyrazin-8-yl)amino)propanoic acid]"
9,< 1 µM,"CNS(=O)(=O)N1CCN2c3ncccc3N(c3ccc(C(F)(F)F)cc3)CC2C1 (stereo not drawn) [compound 45, N-methyl-5-(4-(trifluoromethyl)phenyl)-5,6,6a,7,9,10-hexahydro-8H-pyrazino[1,2-a]pyrido[3,2-e]pyrazine-8-sulfonamide]"
10,< 1 µM,"CC(=O)NCC1CN(c2ccc(C(F)(F)F)cc2)c2ccc(C)nc2O1 (stereo not drawn) [compound 77, N-((6-methyl-1-(4-(trifluoromethyl)phenyl)-2,3-dihydro-1H-pyrido[2,3-b][1,4]oxazin-3-yl)methyl)acetamide]"
11,< 1 µM,"C=CC(=O)N1CCN2CCN(c3ccc(C(F)(F)F)cc3)CC2C1 (stereo not drawn) [compound 21, 1-(8-(4-(trifluoromethyl)phenyl)octahydro-2H-pyrazino[1,2-a]pyrazin-2-yl)prop-2-en-1-one]"
12,< 1 µM,"C=CC(=O)NCC1CN(c2ccc(C(F)(F)F)cc2)c2ccccc2N1CCO (stereo not drawn) [compound 1, N-((1-(2-hydroxyethyl)-4-(4-(trifluoromethyl)phenyl)-1,2,3,4-tetrahydroquinoxalin-2-yl)methyl)acrylamide]"
13,< 1 µM,"O=C(O)C1CCN2c3c(Cl)cccc3N(c3ccc(C(F)(F)F)cc3)CC2C1 (stereo not drawn) [compound 105, (cis)- or (trans)-1-chloro-5-(4-(trifluoromethyl)phenyl)-6,6a,7,8,9,10-hexahydro-5H-pyrido[1,2-a]quinoxaline-8-carboxylic acid]"
14,1 to 10 µM,"O=C(O)C1CCN2c3ccc(Cl)cc3N(c3ccc(C(F)(F)F)cc3)CC2C1 (stereo not drawn) [compound 104, (cis)- or (trans)-3-chloro-5-(4-(trifluoromethyl)phenyl)-6,6a,7,8,9,10-hexahydro-5H-pyrido[1,2-a]quinoxaline-8-carboxylic acid]"
15,< 1 µM,"CNC(=O)N[C@@H]1C[C@@H]2CN(c3ccc(C(F)(F)F)cc3)c3cccnc3N2C1 [compound 84, 1-methyl-3-((6aR,8R)-5-(4-(trifluoromethyl)phenyl)-5,6,6a,7,8,9-hexahydropyrido[3,2-e]pyrrolo[1,2-a]pyrazin-8-yl)urea]"
16,< 1 µM,"CCc1ccc2c(n1)OC(CNC(C)=O)CN2c1ccc(C(F)(F)F)cc1 (stereo not drawn) [compound 82, N-((6-ethyl-1-(4-(trifluoromethyl)phenyl)-2,3-dihydro-1H-pyrido[2,3-b][1,4]oxazin-3-yl)methyl)acetamide]"
17,< 1 µM,"CC(=O)NC[C@@H]1CN(c2ccc(C(F)(F)F)cc2)c2cccnc2N1 [39-En2, (R)-N-((1-(4-(trifluoromethyl)phenyl)-1,2,3,4-tetrahydropyrido[2,3-b]pyrazin-3-yl)methyl)acetamide]"
18,< 1 µM,"CC(=O)N1CCN2c3nccnc3N(c3ccc(C(F)(F)F)cc3)CC2C1 (stereo not drawn) [compound 40, 1-(5-(4-(trifluoromethyl)phenyl)-5,6,6a,7,9,10-hexahydro-8H-dipyrazino[1,2-a:2′,3′-e]pyrazin-8-yl)ethan-1-one]"
19,1 to 10 µM,"CC(=O)NCC1CN(c2ccc(C(F)(F)F)cn2)c2cccnc2O1 (stereo not drawn) [compound 78, N-((1-(5-(trifluoromethyl)pyridin-2-yl)-2,3-dihydro-1H-pyrido[2,3-b][1,4]oxazin-3-yl)methyl)acetamide]"
20,> 10 µM,"CNS(=O)(=O)N1CCN2C(=O)CN(c3ccc(C(F)(F)F)cc3)CC2C1 (stereo not drawn) [compound 72, N-methyl-6-oxo-8-(4-(trifluoromethyl)phenyl)octahydro-2H-pyrazino[1,2-a]pyrazine-2-sulfonamide]"
21,< 1 µM,"CC(=O)NCC1CN(c2ccc(C(F)(F)F)cc2)c2ccc(Br)nc2O1 (single isomer, unassigned) [compound 122, (R)- or (S)—N-((6-bromo-1-(4-(trifluoromethyl)phenyl)-2,3-dihydro-1H-pyrido[2,3-b][1,4]oxazin-3-yl)methyl)acetamide]"
22,< 1 µM,"CNC(=O)O[C@@H]1C[C@@H]2CN(c3ccc(C(F)(F)F)cc3)c3cccnc3N2C1 [compound 92, (6aR,8R)-5-(4-(trifluoromethyl)phenyl)-5,6,6a,7,8,9-hexahydropyrido[3,2-e]pyrrolo[1,2-a]pyrazin-8-yl methylcarbamate]"
23,< 1 µM,"CC(C)(O)C(=O)N[C@@H]1C[C@@H]2CN(c3ccc(C(F)(F)F)cc3)c3cccnc3N2C1 [compound 110, 2-hydroxy-2-methyl-N-((6aR,8R)-5-(4-(trifluoromethyl)phenyl)-5,6,6a,7,8,9-hexahydropyrido[3,2-e]pyrrolo[1,2-a]pyrazin-8-yl)propanamide]"
